Drawing on US11524966B1 (Valo Early Discovery, Inc., priority 2017, dated 2022), this text covers IC50 for 22 compounds.

Usually IC50 stands for the concentration at which inhibition is half-maximal.

The test deals with T1, USP28 (His-tagged USP28-FL-mammalian) (Homo sapiens, UniProt Q96RU2).
T1 construct: Expression of USP28 (1-1077)-TEV-6*His (pTT5 vector); made in house; host or cells: Expi293f cells (pTT5 vector)
T1 sequence (Q96RU2 1-1077): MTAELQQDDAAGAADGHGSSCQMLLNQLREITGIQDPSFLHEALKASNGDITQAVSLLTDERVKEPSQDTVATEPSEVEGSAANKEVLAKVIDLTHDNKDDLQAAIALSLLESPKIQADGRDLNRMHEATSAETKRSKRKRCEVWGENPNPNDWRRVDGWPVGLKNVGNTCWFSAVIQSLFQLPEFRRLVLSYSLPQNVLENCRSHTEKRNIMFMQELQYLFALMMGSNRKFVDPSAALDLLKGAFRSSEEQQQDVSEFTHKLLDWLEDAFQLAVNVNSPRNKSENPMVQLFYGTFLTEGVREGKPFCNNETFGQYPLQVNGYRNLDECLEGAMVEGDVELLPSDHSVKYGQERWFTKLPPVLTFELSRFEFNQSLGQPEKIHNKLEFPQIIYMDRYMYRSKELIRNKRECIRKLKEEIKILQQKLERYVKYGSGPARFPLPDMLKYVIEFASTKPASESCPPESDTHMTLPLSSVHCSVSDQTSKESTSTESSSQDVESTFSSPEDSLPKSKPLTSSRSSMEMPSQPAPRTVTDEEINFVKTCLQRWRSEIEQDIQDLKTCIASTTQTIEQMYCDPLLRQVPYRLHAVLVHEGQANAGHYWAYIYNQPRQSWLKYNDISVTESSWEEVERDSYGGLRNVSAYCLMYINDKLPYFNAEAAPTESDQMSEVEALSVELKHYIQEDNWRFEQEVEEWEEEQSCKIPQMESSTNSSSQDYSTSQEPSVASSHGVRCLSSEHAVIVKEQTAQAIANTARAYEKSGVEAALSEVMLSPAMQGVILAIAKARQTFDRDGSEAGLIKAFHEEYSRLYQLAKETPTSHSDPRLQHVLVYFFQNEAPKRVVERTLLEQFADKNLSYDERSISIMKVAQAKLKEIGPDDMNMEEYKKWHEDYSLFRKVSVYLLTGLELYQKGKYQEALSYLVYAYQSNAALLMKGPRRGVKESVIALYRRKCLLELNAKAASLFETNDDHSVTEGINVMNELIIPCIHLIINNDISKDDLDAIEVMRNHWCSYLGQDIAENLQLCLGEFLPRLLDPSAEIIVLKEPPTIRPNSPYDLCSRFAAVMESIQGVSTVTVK
In words: Ubiquitin-Rhodamine 110 Assay for USP28 Activity, Example A-1(a). The format is biochemical. The settings on record: Ubiquitin-Rhodamine 110 assay, Example A-1(a); read-out: USP28 A-1(a) IC50 range. The essentials: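 IC50 from 4-parameter logistic fit of percent inhibition versus no-enzyme and DMSO controls; compounds 25 μM to 1.3 nM, 3-fold. Ub-Rh110 cleavage (25 nM, below Km) by […] mammalian-expressed USP28-FL-His ran 45 min at room temperature, stopped with 10 mM citric acid, read ex 485/em 535.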
For the compound `CO[C@H]1CN(c2ccc3c(c2)CC[C@H](NC(=O)c2sc4nc(C)sc4c2N)C3)C[C@@H]1N` [Example 133, 6-amino-N-[(2S)-6-[(3S,4S)-3-amino-4-methoxypyrrolidin-1-yl]-1,2,3,4-tetrahydronaphthalen-2-yl]-2-methylthieno[2,3-d][1,3]thiazole-5-carboxamide], the IC50 lay within 50 to 200 nM.

For `CO[C@@H]1CN(c2cc(F)c3c(c2)OC[C@H](NC(=O)c2sc4nc(C)ccc4c2N)C3)C[C@@H]1N` [Example 145, 3-amino-N-[(3R)-7-[(3S,4R)-3-amino-4-methoxypyrrolidin-1-yl]-5-fluoro-3,4-dihydro-2H-1-benzopyran-3-yl]-6-methylthieno[2,3-b]pyridine-2-carboxamide], the IC50 lay within 1 to 50 nM.

`CO[C@@H]1CN(c2ccc3c(c2)OC[C@H](NC(=O)c2sc4nc(C)ccc4c2N)C3)C[C@@H]1N` [Example 121, 3-amino-N-[(3R)-7-[(3S,4R)-3-amino-4-methoxypyrrolidin-1-yl]-3,4-dihydro-2H-1-benzopyran-3-yl]-6-methylthieno[2,3-b]pyridine-2-carboxamide]: the concentration for half-maximal inhibition (IC50) was in the range of 1 to 50 nM.

Regarding `Cc1ccc2c(N)c(C(=O)N[C@H]3COc4cc(N5CC6CCC(C5)N6)cc(F)c4C3)oc2n1` [Example 170, 3-amino-N-[(3R)-7-{3,8-diazabicyclo[3.2.1]octan-3-yl}-5-fluoro-3,4-dihydro-2H-1-benzopyran-3-yl]-6-methylfuro[2,3-b]pyridine-2-carboxamide], the 50% inhibitory concentration (IC50) is 200 to 2000 nM.

As to `CO[C@H]1CN(c2cc(F)c3c(c2)OC[C@H](NC(=O)c2sc4nc(C)ccc4c2N)C3)C[C@H]1N` [Example 146], the half-maximal inhibitory concentration (IC50) is 1 to 50 nM.

With `Cc1ccc2c(N)c(C(=O)N[C@H]3COc4cc(N5C[C@H](OC6CCC6)[C@@H](N)C5)ccc4C3)sc2n1` [Example 141, 3-amino-N-[(3R)-7-[(3S,4S)-3-amino-4-cyclobutoxypyrrolidin-1-yl]-3,4-dihydro-2H-1-benzopyran-3-yl]-6-methylthieno[2,3-b]pyridine-2-carboxamide], the IC50 lay in the range of 1 to 50 nM.

For the compound `CO[C@H]1CN(c2ccc3c(c2)OC[C@H](NC(=O)c2sc4nc(C)cnc4c2N)C3)C[C@@H]1N` [Example 117, 7-amino-N-[(3R)-7-[(3S,4S)-3-amino-4-methoxypyrrolidin-1-yl]-3,4-dihydro-2H-1-benzopyran-3-yl]-3-methylthieno[2,3-b]pyrazine-6-carboxamide], the IC50 is 1 to 50 nM.

As for `Cc1ccc2c(N)c(C(=O)N[C@H]3COc4cc(N5CC[C@@H]6CNC[C@@H]65)ccc4C3)sc2n1` [Example 165, N-[(3R)-7-[(3aR,6aR)-octahydropyrrolo[2,3-c]pyrrol-1-yl]-3,4-dihydro-2H-1-benzopyran-3-yl]-3-amino-6-methylthieno[2,3-b]pyridine-2-carboxamide], the IC50 was 1 to 50 nM.

For `CO[C@@H]1CN(c2ccc3c(c2)OC[C@H](NC(=O)c2sc4nc(C)ccc4c2N)C3)CC[C@H]1N` [Example 129, 3-amino-N-[(3R)-7-[(3R,4R)-4-amino-3-methoxypiperidin-1-yl]-3,4-dihydro-2H-1-benzopyran-3-yl]-6-methylthieno[2,3-b]pyridine-2-carboxamide], the IC50 is 1 to 50 nM.

`Cc1ccc2c(N)c(C(=O)N[C@H]3COc4c(F)c(N5C[C@@H]6C[C@H]5CN6)cc(F)c4C3)sc2n1` [Example 110, 3-amino-N-[(3R)-7-[(1S,4S)-2,5-diazabicyclo[2.2.1]heptan-2-yl]-5,8-difluoro-3,4-dihydro-2H-1-benzopyran-3-yl]-6-methylthieno[2,3-b]pyridine-2-carboxamide]: the IC50 was 1 to 50 nM.

Consider `COC[C@@H]1CN(c2ccc3c(c2)OC[C@H](NC(=O)c2sc4nc(C)ccc4c2N)C3)C[C@H]1N` [Example 163, 3-amino-N-[(3R)-7-[(3S,4R)-3-amino-4-(methoxymethyl)pyrrolidin-1-yl]-3,4-dihydro-2H-1-benzopyran-3-yl]-6-methylthieno[2,3-b]pyridine-2-carboxamide], for which the IC50 lay in the range of 1 to 50 nM.

For the compound `Cc1ccc2c(N)c(C(=O)N[C@H]3COc4nc(N5CC6CNCC(C5)C6(F)F)ccc4C3)sc2n1` [Example 113, 3-amino-N-[(3R)-7-{9 9-difluoro-3,7-diazabicyclo[3.3.1]nonan-3-yl}-2H b,3H,4H-pyrano[2,3-b]pyridin-3-yl]-6-methylthieno[2,3-b]pyridine-2-carboxamide], the IC50 was in the range of 1 to 50 nM.

`Cc1ccc2c(N)c(C(=O)N[C@H]3COc4cc([C@H]5C[C@@H](N)C5)ccc4C3)sc2n1` [Example 123, 3-amino-6-methyl-N-[(3R)-7-[(1s,3S)-3-aminocyclobutyl]-3,4-dihydro-2H-1-benzopyran-3-yl]thieno[2,3-b]pyridine-2-carboxamide]: the IC50 was 1 to 50 nM.

For `Cc1ccc2c(N)c(C(=O)N[C@H]3COc4c(ccc(N5CC6CNCC(C5)O6)c4F)C3)sc2n1` [Example 105, 3-amino-N-[(3R)-8-fluoro-7-{9-oxa-3,7-diazabicyclo[3.3.1]nonan-3-yl}-3,4-dihydro-2H-1-benzopyran-3-yl]-6-methylthieno[2,3-b]pyridine-2-carboxamide], the 50% inhibitory concentration (IC50) fell in the range of 1 to 50 nM.

Take `CO[C@H]1CN(c2cc3c(cc2F)C[C@@H](NC(=O)c2sc4nc(C)ccc4c2N)CO3)C[C@@H]1N` [Example 94, 3-amino-N-[(3R)-7-[(3S,4S)-3-amino-4-methoxypyrrolidin-1-yl]-6-fluoro-3,4-dihydro-2H-1-benzopyran-3-yl]-6-methylthieno[2,3-b]pyridine-2-carboxamide]: the IC50 lay within 1 to 50 nM.

As for `Cc1ccc2c(N)c(C(=O)N[C@H]3COc4cc(N5CC6CNCC(C5)O6)c(C#N)c(F)c4C3)sc2n1` [Example 127, 3-amino-N-[(3R)-6-cyano-5-fluoro-7-{9-oxa-3,7-diazabicyclo[3.3.1]nonan-3-yl}-3,4-dihydro-2H-1-benzopyran-3-yl]-6-methylthieno[2,3-b]pyridine-2-carboxamide], the IC50 was in the range of 1 to 50 nM.

On to `CCO[C@H]1CN(c2ccc3c(c2)OC[C@H](NC(=O)c2sc4nc(C)ccc4c2N)C3)C[C@@H]1N` [Example 115, 3-amino-N-[(3R)-7-[(3S,4S)-3-amino-4-ethoxypyrrolidin-1-yl]-3,4-dihydro-2H-1-benzopyran-3-yl]-6-methylthieno[2,3-b]pyridine-2-carboxamide], for which the IC50 was 1 to 50 nM.

Turning to `CO[C@H]1CN(c2ccc3c(c2)OC[C@H](NC(=O)c2sc4nc(C)sc4c2N)C3)C[C@@H]1N` [Example 118, 6-amino-N-[(3R)-7-[(3S,4S)-3-amino-4-methoxypyrrolidin-1-yl]-3,4-dihydro-2H-1-benzopyran-3-yl]-2-methylthieno[2,3-d][1,3]thiazole-5-carboxamide], the IC50 was in the range of 50 to 200 nM.

As to `Cc1nc2sc(C(=O)N[C@H]3COc4cc(N5CC6CCC(C5)N6)c(F)c(F)c4C3)c(N)c2s1` [Example 108, 6-amino-N-[(3R)-7-{3,8-diazabicyclo[3.2.1]octan-3-yl}-5,6-difluoro-3,4-dihydro-2H-1-benzopyran-3-yl]-2-methylthieno[2,3-d][1,3]thiazole-5-carboxamide], the concentration for half-maximal inhibition (IC50) was in the range of 1 to 50 nM.

Consider `CO[C@H]1CN(c2ccc3c(c2)OC[C@H](NC(=O)c2sc4nc(C)cnc4c2N)C3)C[C@H]1N` [Example 148, 7-amino-N-[(3R)-7-[(3R,4S)-3-amino-4-methoxypyrrolidin-1-yl]-3,4-dihydro-2H-1-benzopyran-3-yl]-3-methylthieno[2,3-b]pyrazine-6-carboxamide], for which the IC50 is 1 to 50 nM.

As for `Cc1ccc2c(N)c(C(=O)N[C@H]3CCc4cc(N5CC6CNCC(C5)O6)c(C#N)cc4C3)sc2n1` [Example 109, 3-amino-N-[(2S)-7-cyano-6-{9-oxa-3,7-diazabicyclo[3.3.1]nonan-3-yl}-1,2,3,4-tetrahydronaphthalen-2-yl]-6-methylthieno[2,3-b]pyridine-2-carboxamide], the IC50 fell in the range of 1 to 50 nM.

For the compound `CO[C@H]1CN(c2ccc3c(c2)OC[C@H](NC(=O)c2sc4nc(C)ccc4c2N)C3)CC[C@@H]1N` [Example 128, 3-amino-N-[(3R)-7-[(3S,4S)-4-amino-3-methoxypiperidin-1-yl]-3,4-dihydro-2H-1-benzopyran-3-yl]-6-methylthieno[2,3-b]pyridine-2-carboxamide], the IC50 lay in the range of 1 to 50 nM.
